From the supplement of paper PMC9912026

Test system: HT29
Assay: pERK immunofluorescence normalised to no-drug reference (=1); higher = more ERK phosphorylation (less pathway inhibition)
Conditions: drug treatment time 24 h, EGF time 8 h
Description: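 A375 CRISPRa-EGFR (A375_aEGFR2) or HT29 cells were treated with two-drug dose combinations (vemurafenib, LY3009120, cobimetinib) for 24 h, then stimulated with EGF (100 ng/mL) or mock medium for 8 h. pERK (T202/Y204) was measured by immunofluorescence as the cytosolic population average, normalised to an untreated no-drug reference of the block (=1). Averages of 2 technical replicates. A375 in 5% FBS, HT29 in 10% FBS.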

CCCS(=O)(=O)Nc1ccc(F)c(C(=O)c2c[nH]c3ncc(-c4ccc(Cl)cc4)cc23)c1F [Vemurafenib] + O=C(c1ccc(F)c(F)c1Nc1ccc(I)cc1F)N1CC(O)([C@@H]2CCCCN2)C1 [Cobimetinib]
pERK immunofluorescence normalised
Conditions | drug B concentration 0 µM | drug B concentration 0.0001 µM | drug B concentration 0.0003162 µM | drug B concentration 0.001 µM | drug B concentration 0.00316228 µM | drug B concentration 0.01 µM | drug B concentration 0.0316228 µM | drug B concentration 0.1 µM | drug B concentration 0.316228 µM | drug B concentration 1 µM
drug A concentration 0 µM, EGF 0 ng/mL | – | 1.1 | 0.976 | 0.886 | 0.53 | 0.231 | 0.148 | 0.115 | 0.102 | 0.0988
drug A concentration 0 µM, EGF 100 ng/mL | – | 1.01 | 0.982 | 0.979 | 0.936 | 0.829 | 0.673 | 0.483 | 0.218 | 0.117
drug A concentration 0.000316 µM, EGF 0 ng/mL | 1 | 1.07 | 1.06 | 0.85 | 0.482 | 0.233 | 0.136 | 0.102 | 0.0952 | 0.0916
drug A concentration 0.000316 µM, EGF 100 ng/mL | 1.1 | 1.09 | 1.13 | 1.03 | 1.03 | 0.928 | 0.82 | 0.539 | 0.227 | 0.111
drug A concentration 0.001 µM, EGF 0 ng/mL | 1.05 | 1.06 | 1.03 | 0.855 | 0.463 | 0.217 | 0.127 | 0.106 | 0.0917 | 0.0915
drug A concentration 0.001 µM, EGF 100 ng/mL | 1.05 | 1.11 | 1.14 | 1.08 | 1.02 | 0.873 | 0.751 | 0.499 | 0.213 | 0.108
drug A concentration 0.00316 µM, EGF 0 ng/mL | 1.07 | 1.06 | 1.02 | 0.836 | 0.463 | 0.225 | 0.132 | 0.0985 | 0.0922 | 0.0903
drug A concentration 0.00316 µM, EGF 100 ng/mL | 1.05 | 1.13 | 1.17 | 1.04 | 1.03 | 0.887 | 0.769 | 0.496 | 0.213 | 0.106
drug A concentration 0.01 µM, EGF 0 ng/mL | 0.924 | 0.922 | 0.868 | 0.73 | 0.416 | 0.201 | 0.124 | 0.0992 | 0.093 | 0.0898
drug A concentration 0.01 µM, EGF 100 ng/mL | 1.03 | 1.04 | 1.04 | 0.958 | 1 | 0.902 | 0.738 | 0.473 | 0.213 | 0.107
drug A concentration 0.0316 µM, EGF 0 ng/mL | 0.742 | 0.727 | 0.695 | 0.513 | 0.389 | 0.189 | 0.129 | 0.0998 | 0.0935 | 0.095
drug A concentration 0.0316 µM, EGF 100 ng/mL | 0.843 | 0.912 | 0.902 | 0.933 | 0.854 | 0.818 | 0.699 | 0.467 | 0.211 | 0.109
drug A concentration 0.1 µM, EGF 0 ng/mL | 0.43 | 0.429 | 0.451 | 0.339 | 0.213 | 0.148 | 0.124 | 0.109 | 0.101 | 0.1
drug A concentration 0.1 µM, EGF 100 ng/mL | 0.824 | 0.844 | 0.967 | 0.948 | 0.882 | 0.755 | 0.699 | 0.437 | 0.212 | 0.112
drug A concentration 0.316228 µM, EGF 0 ng/mL | 0.261 | 0.305 | 0.273 | 0.251 | 0.166 | 0.133 | 0.115 | 0.104 | 0.101 | 0.0973
drug A concentration 0.316228 µM, EGF 100 ng/mL | 0.765 | 0.827 | 0.843 | 0.882 | 0.815 | 0.767 | 0.626 | 0.458 | 0.206 | 0.109
drug A concentration 1 µM, EGF 0 ng/mL | 0.201 | 0.205 | 0.203 | 0.178 | 0.146 | 0.125 | 0.111 | 0.101 | 0.0945 | 0.0941
drug A concentration 1 µM, EGF 100 ng/mL | 0.754 | 0.764 | 0.815 | 0.808 | 0.746 | 0.713 | 0.606 | 0.363 | 0.177 | 0.104
drug A concentration 3.16 µM, EGF 0 ng/mL | 0.162 | 0.165 | 0.171 | 0.144 | 0.134 | 0.119 | 0.113 | 0.0971 | 0.0922 | 0.0932
drug A concentration 3.16 µM, EGF 100 ng/mL | 0.69 | 0.73 | 0.731 | 0.772 | 0.663 | 0.562 | 0.414 | 0.215 | 0.115 | 0.093
drug A concentration 10 µM, EGF 0 ng/mL | 0.187 | 0.177 | 0.202 | 0.185 | 0.158 | 0.133 | 0.106 | 0.091 | 0.0912 | 0.0919
drug A concentration 10 µM, EGF 100 ng/mL | 0.541 | 0.517 | 0.524 | 0.486 | 0.441 | 0.323 | 0.187 | 0.107 | 0.0914 | 0.09
